Seven compounds from patent US20230233690A1, “ANDROGEN RECEPTOR PROTEIN DEGRADERS” (THE REGENTS OF THE UNIVERSITY OF MICHIGAN, priority 2020, published 2023) can be followed below.

SMILES strings stand for the structures. Like-named read-outs stand apart in the source and are kept apart here.

Series [1] deals with T1, AR protein (Homo sapiens, UniProt P10275).
T1 construct: endogenous in cells; host or cells: VCaP
T1 sequence (P10275 1-920): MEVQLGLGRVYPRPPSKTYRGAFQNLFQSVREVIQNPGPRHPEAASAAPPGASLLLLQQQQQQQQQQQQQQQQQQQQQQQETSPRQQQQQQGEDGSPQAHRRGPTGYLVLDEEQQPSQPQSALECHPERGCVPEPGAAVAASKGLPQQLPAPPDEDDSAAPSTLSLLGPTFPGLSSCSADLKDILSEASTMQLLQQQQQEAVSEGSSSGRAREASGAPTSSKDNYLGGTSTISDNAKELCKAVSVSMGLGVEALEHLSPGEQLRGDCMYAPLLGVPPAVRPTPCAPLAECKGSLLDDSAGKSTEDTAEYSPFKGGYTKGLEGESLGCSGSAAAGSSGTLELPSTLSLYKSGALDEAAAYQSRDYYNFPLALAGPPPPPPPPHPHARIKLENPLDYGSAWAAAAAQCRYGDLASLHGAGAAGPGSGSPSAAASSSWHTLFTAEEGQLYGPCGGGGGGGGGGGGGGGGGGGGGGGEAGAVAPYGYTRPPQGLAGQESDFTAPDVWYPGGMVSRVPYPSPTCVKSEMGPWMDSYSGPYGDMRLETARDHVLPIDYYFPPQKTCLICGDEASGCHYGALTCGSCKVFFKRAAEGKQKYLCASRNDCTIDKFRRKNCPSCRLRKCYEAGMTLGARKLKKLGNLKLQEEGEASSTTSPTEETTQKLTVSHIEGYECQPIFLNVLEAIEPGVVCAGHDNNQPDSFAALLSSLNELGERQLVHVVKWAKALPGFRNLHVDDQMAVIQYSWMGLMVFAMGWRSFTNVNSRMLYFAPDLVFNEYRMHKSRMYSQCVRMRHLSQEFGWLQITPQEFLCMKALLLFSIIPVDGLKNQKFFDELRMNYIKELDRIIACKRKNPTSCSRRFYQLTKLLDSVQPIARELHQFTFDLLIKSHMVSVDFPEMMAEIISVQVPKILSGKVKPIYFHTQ
Briefly: Western blotting of AR protein degradation in VCaP cells. Type of series: cell-based. As for the experimental part:
The treated cells were lysed with RIPA buffer. […] GAPDH was used as a loading control.
Bands were quantified with ImageJ software. The relative numbers of each band obtained from normalization with its corresponding GAPDH level were compared with Prism 8 software. The DC50 values were produced from Prism 8, and the DC90 values were calculated with an equation=Bottom+(Top−Bottom)/(1+10^((Log EC50−X)*HillSlope) based on DC50 and Hillslope values.
On the technique in general: In western blotting, separated proteins are transferred to a membrane and probed.

The nature of series [2]: PK parameters in male mice (Table 9). It counts as in vivo. The settings on record: for Vd: read-out: Vss. How it is done:
The pharmacokinetics (PK) of representative Compounds of the Disclosure were evaluated in mice or rats to provide an assessment of their oral bioavaibility. All animal experiments were performed under the guidelines of the University of Michigan Committee for Use and Care of Animals and using an approved animal protocol.

The mark [3] stands for this setting: ICR, mouse, in vivo, IV 1 mg/kg.
Setting [4] is: ICR, mouse, in vivo, IV 2 mg/kg.

With `CN(c1ccc(C#N)c(Cl)c1)[C@H]1CC[C@H](NC(=O)c2ccc(N3CCN(C4CN(c5ccc6c(c5)C(=O)N(C5CCC(=O)NC5=O)C6=O)C4)CC3)cc2)CC1` (stereo partly drawn) [Cpd. No. 238, N-((1r,4r)-4-((3-chloro-4-cyanophenyl)(methyl)amino)cyclohexyl)-4-(4-(1-(2-(2,6-dioxopiperidin-3-yl)-1,3-dioxoisoindolin-5-yl)azetidin-3-yl)piperazin-1-yl)benzamide], the “% AR protein degradation in VCaP Cells” value in series [1] (0.001 μM) was found to be 78%. For the same compound, the “% AR protein degradation in VCaP Cells” value in series [1] (0.01 μM) came to 90%. Moreover, the “% AR protein degradation in VCaP Cells” value in series [1] (0.1 μM) was found to be 89%. Moreover, the “% AR protein degradation in VCaP Cells” value in series [1] (1 μM) came to 78%. Moreover, in series [2] (IV 2 mg/kg), the “AUC(0-t)” value came out at 6481 ng·h/mL, the Cl was found to be 5 mL/min/kg, the T1/2 turned out to be 5.5 h and the Vss was found to be 1.8 L/kg. In series [2] (PO 5 mg/kg), the “AUC(0-t)” value amounted to 8254 ng·h/mL, the Cmax amounted to 1140 ng/mL, the T1/2 is 4.6 h and the Tmax was determined as 2.0 h. Further, the F in series [2] (PO 5 mg/kg vs IV 2 mg/kg) is 51%.
As for `CN(c1ccc(C#N)c(Cl)c1)[C@H]1CC[C@H](NC(=O)c2ccc(N3CC(CN4CCN(c5ccc6c(c5)C(=O)N(C5CCC(=O)NC5=O)C6=O)CC4)C3)cc2)CC1` (stereo partly drawn) [compound 239, N-((1r,4r)-4-((3-chloro-4-cyanophenyl)(methyl)amino)cyclohexyl)-4-(3-((4-(2-(2,6-dioxopiperidin-3-yl)-1,3-dioxoisoindolin-5-yl)piperazin-1-yl)methyl)azetidin-1-yl)benzamide], in series [1] (0.001 μM), the “% AR protein degradation in VCaP Cells” value came out at 73%. In series [1] (0.01 μM), the “% AR protein degradation in VCaP Cells” value worked out at 91%. In addition, in series [1] (0.1 μM), the “% AR protein degradation in VCaP Cells” value is 95%. In addition, the “% AR protein degradation in VCaP Cells” value in series [1] (1 μM) is 94%. In addition, in series [2] (IV 1 mg/kg), the “AUC(0-t)” value came out at 1118 ng·h/mL, the Cl amounted to 13.2 mL/min/kg, the T1/2 was 8.8 h and the Vss is on record as 8.25 L/kg. In addition, in series [2] (PO 3 mg/kg), the “AUC(0-t)” value was 1134 ng·h/mL, the Cmax came out at 92.2 ng/mL, the T1/2 was found to be 8.1 h and the Tmax is listed as 4.0 h. Further, the F in series [2] (PO 3 mg/kg vs IV 1 mg/kg) turned out to be 34%.
For `N#Cc1ccc(O[C@H]2CC[C@H](NC(=O)c3ccc(N4CCC(N5CCN(c6ccc7c(c6)C(=O)N(C6CCC(=O)NC6=O)C7=O)CC5)CC4)cc3)CC2)cc1Cl` (stereo partly drawn) [compound 223, N-((1r,4r)-4-(3-chloro-4-cyanophenoxy)cyclohexyl)-4-(4-(4-(2-(2,6-dioxopiperidin-3-yl)-1,3-dioxoisoindolin-5-yl)piperazin-1-yl)piperidin-1-yl)benzamide], the “% AR protein degradation in VCaP Cells” value came to 73% in series [1] (0.001 μM), 91% in series [1] (0.01 μM), 85% in series [1] (0.1 μM) and 75% in series [1] (1 μM). This compound also showed a clearance in series [2] (setting [3]) of 6.5 mL/min/kg. Besides, the Vd in series [2] (setting [3]) stood at 3.04 L/kg. The figures for the exposure AUC(0-t) in series [2] (IV 1 mg/kg) and in series [2] (PO 3 mg/kg) were 2425 ng·h/mL and 2154 ng·h/mL, respectively. Also, the T1/2 in series [2] (IV 1 mg/kg) was 6.1 h; in series [2] (PO 3 mg/kg), 5.6 h. In addition, the Cmax in series [2] (PO 3 mg/kg) is given as 207 ng/mL. In addition, in series [2] (PO 3 mg/kg), the Tmax was 4.0 h. The same compound showed a F in series [2] (PO 3 mg/kg vs IV 1 mg/kg) of 30%.
Turning to `CN(c1ccc(C#N)c(Cl)c1)[C@H]1CC[C@H](NC(=O)c2ccc(N3CCC(CN4CCN(c5ccc6c(c5)C(=O)N(C5CCC(=O)NC5=O)C6=O)CC4)CC3)cc2)CC1` (stereo partly drawn) [compound 234, N-((1r,4r)-4-((3-chloro-4-cyanophenyl)(methyl)amino)cyclohexyl)-4-(4-((4-(2-(2,6-dioxopiperidin-3-yl)-1,3-dioxoisoindolin-5-yl)piperazin-1-yl)methyl)piperidin-1-yl)benzamide], in series [1] (0.001 μM), the “% AR protein degradation in VCaP Cells” value worked out at 55%. The “% AR protein degradation in VCaP Cells” value in series [1] (0.01 μM) was 91%. Moreover, in series [1] (0.1 μM), the “% AR protein degradation in VCaP Cells” value worked out at 93%. Moreover, the “% AR protein degradation in VCaP Cells” value in series [1] (1 μM) is 90%. In addition, in series [2] (IV 1 mg/kg), the “AUC(0-t)” value came to 693 ng·h/mL, the Cl is 18.3 mL/min/kg, the T1/2 was found to be 12.5 h and the Vss turned out to be 17.6 L/kg. In addition, in series [2] (PO 3 mg/kg), the area under the curve AUC(0-t) amounted to 737.5 ng·h/mL, the Cmax was 45.0 ng/mL, the T1/2 was determined as 27.0 h and the time of peak concentration (Tmax) stood at 6.0 h. Besides, in series [2] (PO 3 mg/kg vs IV 1 mg/kg), the F worked out at 35%.
As for `CN(c1ccc(C#N)c(Cl)c1)[C@H]1CC[C@H](NC(=O)c2ccc(N3CCN(C4CCN(c5ccc6c(c5)C(=O)N(C5CCC(=O)NC5=O)C6=O)CC4)CC3)cc2)CC1` (stereo partly drawn) [Cpd. No. 235, N-((1r,4r)-4-((3-chloro-4-cyanophenyl)(methyl)amino)cyclohexyl)-4-(4-(1-(2-(2,6-dioxopiperidin-3-yl)-1,3-dioxoisoindolin-5-yl)piperidin-4-yl)piperazin-1-yl)benzamide], the “% AR protein degradation in VCaP Cells” value in series [1] (0.001 μM) worked out at 94%. Also, the “% AR protein degradation in VCaP Cells” value in series [1] (0.01 μM) is 99%. In series [1] (0.1 μM), the “% AR protein degradation in VCaP Cells” value was determined as 99.9%. For the same compound, the Vd in series [2] (setting [3]) is 2.64 L/kg. Besides, in series [2] (IV 1 mg/kg), the area under the curve AUC(0-t) is 3366 ng·h/mL, the Cl is 4.5 mL/min/kg and the T1/2 worked out at 7.6 h. Further, in series [2] (PO 3 mg/kg), the “AUC(0-t)” value came to 3001 ng·h/mL, the Cmax is listed as 256.1 ng/mL, the T1/2 came out at 7.0 h and the Tmax is listed as 4.7 h. The compound also came in with a F in series [2] (PO 3 mg/kg vs IV 1 mg/kg) of 29%.
`N#Cc1ccc(O[C@H]2CC[C@H](NC(=O)c3ccc(N4CCN(C5CN(c6ccc7c(c6)C(=O)N(C6CCC(=O)NC6=O)C7=O)C5)CC4)cc3)CC2)cc1Cl` (stereo partly drawn) [compound 225, N-((1r,4r)-4-(3-chloro-4-cyanophenoxy)cyclohexyl)-4-(4-(1-(2-(2,6-dioxopiperidin-3-yl)-1,3-dioxoisoindolin-5-yl)azetidin-3-yl)piperazin-1-yl)benzamide]: the “% AR protein degradation in VCaP Cells” value in series [1] (0.001 μM) is listed as 61%; in series [1] (0.01 μM), 48%; in series [1] (0.1 μM) it was 15%; in series [1] (1 μM), −23%. The clearance in series [2] (setting [4]) is 4.33 mL/min/kg. Also, the half-life is 6.58 h in series [2] (setting [4]) and 5.8 h in series [2] (ICR, mouse, in vivo, PO 5 mg/kg). The AUC(0-t) in series [2] (ICR, mouse, in vivo, IV 2 mg/kg, read-out: AUC(0-t)) is 6760 ng·h/mL; in series [2] (ICR, mouse, in vivo, PO 5 mg/kg, read-out: AUC(0-t)) it was 13100 ng·h/mL. Further, in series [2] (setting [4]), the Vd was found to be 2.23 L/kg. In series [2] (ICR, mouse, in vivo, PO 5 mg/kg, read-out: Cmax), the Cmax came to 2130 ng/mL. The Tmax in series [2] (ICR, mouse, in vivo, PO 5 mg/kg, read-out: Tmax) came to 2 h. Moreover, the F in series [2] (PO 5 mg/kg vs IV 2 mg/kg) came out at 77%.
Turning to `CN(c1ccc(C#N)c(Cl)c1)[C@H]1CC[C@H](NC(=O)c2ccc(N3CCN(CC4CCN(c5ccc6c(c5)C(=O)N(C5CCC(=O)NC5=O)C6=O)CC4)CC3)cc2)CC1` (stereo partly drawn) [compound 233, N-((1r,4r)-4-((3-chloro-4-cyanophenyl)(methyl)amino)cyclohexyl)-4-(4-((1-(2-(2,6-dioxopiperidin-3-yl)-1,3-dioxoisoindolin-5-yl)piperidin-4-yl)methyl)piperazin-1-yl)benzamide], the “% AR protein degradation in VCaP Cells” value in series [1] (0.001 μM) was determined as 49%; in series [1] (0.01 μM), 78%; in series [1] (0.1 μM), 87%; in series [1] (1 μM), 76%. In series [2] (setting [3]), this compound gave a clearance of 8.5 mL/min/kg. In addition, the half-life is 26 h in series [2] (setting [3]) and 41 h in series [2] (ICR, mouse, in vivo, PO 3 mg/kg). For the same compound, the AUC(0-t) in series [2] (ICR, mouse, in vivo, IV 1 mg/kg, read-out: AUC(0-t)) stood at 1040 ng·h/mL; in series [2] (ICR, mouse, in vivo, PO 3 mg/kg, read-out: AUC(0-t)), 940 ng·h/mL. Moreover, the Vd in series [2] (setting [3]) turned out to be 16.8 L/kg. Moreover, the Cmax in series [2] (ICR, mouse, in vivo, PO 3 mg/kg, read-out: Cmax) stood at 60 ng/mL. In series [2] (ICR, mouse, in vivo, PO 3 mg/kg, read-out: Tmax), the Tmax was determined as 4 h. In addition, the F in series [2] (PO 3 mg/kg vs IV 1 mg/kg) is reported as 30%.

One may read the AUC(0-t) as exposure summed from dosing to a finite time, without extrapolation to infinity. One may read the Vss as the apparent volume that relates the amount in the body to the concentration in plasma or blood. Read a low Vss as little distribution into tissue. In general, Cmax refers to the highest concentration seen after dosing. One may read the Tmax as the time from dosing to the highest level. Broadly, the clearance is the rate of elimination divided by the concentration. High values mean efficient removal, low ones inefficient removal. What is called half-life is how long it takes for the measured level to halve. A lower half-life goes with rapid decline.
